The source made the active and inactive calls.
How the values were obtained:
[1] = molecular target: T1, Mannose-6-phosphate isomerase (Homo sapiens, UniProt P34949); experiment: human PMI inhibitors, high substrate, primary screen, biochemical, fluorescence intensity, high mannose 6-phosphate (AID 1220)
T1 sequence (P34949 whole entry): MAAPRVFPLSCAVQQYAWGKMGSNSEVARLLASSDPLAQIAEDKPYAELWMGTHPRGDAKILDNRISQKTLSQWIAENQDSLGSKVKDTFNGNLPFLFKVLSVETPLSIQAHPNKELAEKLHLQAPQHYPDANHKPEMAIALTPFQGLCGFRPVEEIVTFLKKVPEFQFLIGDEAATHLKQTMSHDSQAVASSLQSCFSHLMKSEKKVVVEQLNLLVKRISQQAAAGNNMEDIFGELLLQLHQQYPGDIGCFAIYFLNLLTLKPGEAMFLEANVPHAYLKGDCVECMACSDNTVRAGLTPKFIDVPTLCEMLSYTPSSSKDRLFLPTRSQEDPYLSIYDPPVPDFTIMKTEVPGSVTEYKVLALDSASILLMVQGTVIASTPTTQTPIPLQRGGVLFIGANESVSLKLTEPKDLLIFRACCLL

[2] = NIH-3T3 fibroblast cytotoxicity, dose response, cytotoxicity control, cell-based, fluorescence, Alamar Blue, secondary assay (AID 2327); type: functional;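 further: NIH-3T3 mouse fibroblasts cultured with fluconazole at 8 µg/mL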
[3] = P. falciparum late gametocyte killing, dose response, luminescence (AID 1117278); type: functional, cell-based;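 further: gametocytes exposed to compound for 24 hours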
[4] = Jurkat T cell cytotoxicity, dose response, cytotoxicity control for P. falciparum gametocyte viability project, luminescence (AID 1117277); type: functional, cell-based;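 further: potency reflects loss of cellular ATP meaning fewer viable cells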
[5] = C. albicans growth with fluconazole, confirmation, fluorescence, retest (AID 2467); type: functional, cell-based
[6] = Luminescence Cell-Based Dose Confirmation HTS to Identify Activators of 5'UTR Stem-Loop Driven Alpha-Synuclein mRNA Translation in H4 Neuroglioblastoma Cells. [Related pubchem assays: 1829 (Project Summary), 1814 (Primary HTS)]; type: functional
SUMO-activating enzyme [7] = molecular target: T2, SUMO-activating enzyme (Homo sapiens, UniProt Q9UBT2); experiment: SUMOylation inhibitor hit validation, confirmation, SUMOylation inhibitor project, biochemical, AlphaScreen (AID 2018); type: functional
T2 sequence (Q9UBE0 whole entry): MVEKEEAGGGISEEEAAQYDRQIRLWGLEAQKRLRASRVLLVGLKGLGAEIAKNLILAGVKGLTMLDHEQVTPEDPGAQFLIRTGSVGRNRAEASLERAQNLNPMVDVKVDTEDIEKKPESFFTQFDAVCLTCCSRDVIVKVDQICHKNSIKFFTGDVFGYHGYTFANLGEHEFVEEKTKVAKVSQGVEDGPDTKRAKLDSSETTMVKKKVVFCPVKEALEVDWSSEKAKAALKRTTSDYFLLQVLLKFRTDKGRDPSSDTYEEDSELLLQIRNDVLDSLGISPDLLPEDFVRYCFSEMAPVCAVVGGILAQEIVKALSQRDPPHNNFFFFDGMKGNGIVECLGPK
T2 sequence (Q9UBT2 whole entry): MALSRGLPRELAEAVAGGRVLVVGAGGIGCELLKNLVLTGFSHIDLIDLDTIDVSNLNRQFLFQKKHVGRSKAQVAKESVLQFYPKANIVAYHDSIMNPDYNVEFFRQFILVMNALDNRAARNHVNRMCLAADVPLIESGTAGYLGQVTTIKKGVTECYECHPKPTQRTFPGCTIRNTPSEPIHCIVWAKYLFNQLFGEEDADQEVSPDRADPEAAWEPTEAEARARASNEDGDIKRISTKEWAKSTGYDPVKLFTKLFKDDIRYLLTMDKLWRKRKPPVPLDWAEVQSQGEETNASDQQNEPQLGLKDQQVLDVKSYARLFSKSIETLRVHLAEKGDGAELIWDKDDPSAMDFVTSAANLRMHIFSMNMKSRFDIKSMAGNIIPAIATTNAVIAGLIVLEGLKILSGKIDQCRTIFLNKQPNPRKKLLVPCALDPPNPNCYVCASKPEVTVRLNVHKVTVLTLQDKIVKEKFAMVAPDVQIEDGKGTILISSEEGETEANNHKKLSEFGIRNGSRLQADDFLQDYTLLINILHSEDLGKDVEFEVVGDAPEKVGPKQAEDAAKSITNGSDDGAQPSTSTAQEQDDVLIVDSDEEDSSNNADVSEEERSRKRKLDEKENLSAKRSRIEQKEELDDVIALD

[8] = Luminescence Cell-Based Dose Response HTS to Identify Activators of Luciferase Translation or Activity in H4 […] Cells. [Related pubchem assays: 1829 (Project Summary), 1814 (Primary HTS)]; type: functional
Protein RecA = molecular target: T3, Protein RecA (Mycobacterium tuberculosis, UniProt P9WHJ3); experiment: Fluorescence Cell-Free Homogeneous Dose Retest to Identify Inhibitors of RecA-Intein Splicing Activity. [Related pubchem assays (depositor defined):AID2097, AID2223, AID489010, AID492950]; type: functional
T3 sequence (P9WHJ3 whole entry): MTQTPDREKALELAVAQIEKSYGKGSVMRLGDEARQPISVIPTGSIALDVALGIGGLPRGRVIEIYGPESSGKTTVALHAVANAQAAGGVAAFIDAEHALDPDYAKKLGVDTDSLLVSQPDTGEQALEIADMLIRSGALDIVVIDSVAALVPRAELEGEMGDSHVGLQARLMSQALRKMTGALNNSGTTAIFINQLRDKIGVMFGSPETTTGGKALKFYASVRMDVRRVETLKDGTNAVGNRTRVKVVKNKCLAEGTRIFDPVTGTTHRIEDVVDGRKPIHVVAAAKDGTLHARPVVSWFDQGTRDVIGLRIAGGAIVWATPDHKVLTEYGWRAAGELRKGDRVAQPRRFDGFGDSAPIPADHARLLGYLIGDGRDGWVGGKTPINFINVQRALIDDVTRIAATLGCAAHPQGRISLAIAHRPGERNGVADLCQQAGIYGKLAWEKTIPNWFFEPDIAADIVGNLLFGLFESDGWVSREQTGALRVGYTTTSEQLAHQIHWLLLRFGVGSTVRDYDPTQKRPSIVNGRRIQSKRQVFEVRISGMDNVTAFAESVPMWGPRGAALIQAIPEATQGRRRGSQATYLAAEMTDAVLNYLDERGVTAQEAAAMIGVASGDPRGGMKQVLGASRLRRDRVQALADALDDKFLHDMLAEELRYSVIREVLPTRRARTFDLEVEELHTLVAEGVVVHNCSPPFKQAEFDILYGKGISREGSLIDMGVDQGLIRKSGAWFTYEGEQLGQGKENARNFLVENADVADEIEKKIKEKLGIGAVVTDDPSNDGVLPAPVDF

H4 = experiment: Luminescence Cell-Based Dose Response HTS to Identify Activators of 5'UTR Stem-Loop Driven Prion Protein mRNA Translation in H4 Neuroglioblastoma Cells. [Related pubchem assays: 1829 (Project Summary), 1814 (Primary HTS)]; type: functional; settings: Homo sapiens
[9] = molecular target: T4, Replicative DNA helicase DnaB (Mycobacterium tuberculosis, UniProt P9WMR3); experiment: DnaB intein splicing inhibitors, dose response, biochemical, cell-free fluorescence (AID 449749); type: functional
T4 sequence (P9WMR3 whole entry): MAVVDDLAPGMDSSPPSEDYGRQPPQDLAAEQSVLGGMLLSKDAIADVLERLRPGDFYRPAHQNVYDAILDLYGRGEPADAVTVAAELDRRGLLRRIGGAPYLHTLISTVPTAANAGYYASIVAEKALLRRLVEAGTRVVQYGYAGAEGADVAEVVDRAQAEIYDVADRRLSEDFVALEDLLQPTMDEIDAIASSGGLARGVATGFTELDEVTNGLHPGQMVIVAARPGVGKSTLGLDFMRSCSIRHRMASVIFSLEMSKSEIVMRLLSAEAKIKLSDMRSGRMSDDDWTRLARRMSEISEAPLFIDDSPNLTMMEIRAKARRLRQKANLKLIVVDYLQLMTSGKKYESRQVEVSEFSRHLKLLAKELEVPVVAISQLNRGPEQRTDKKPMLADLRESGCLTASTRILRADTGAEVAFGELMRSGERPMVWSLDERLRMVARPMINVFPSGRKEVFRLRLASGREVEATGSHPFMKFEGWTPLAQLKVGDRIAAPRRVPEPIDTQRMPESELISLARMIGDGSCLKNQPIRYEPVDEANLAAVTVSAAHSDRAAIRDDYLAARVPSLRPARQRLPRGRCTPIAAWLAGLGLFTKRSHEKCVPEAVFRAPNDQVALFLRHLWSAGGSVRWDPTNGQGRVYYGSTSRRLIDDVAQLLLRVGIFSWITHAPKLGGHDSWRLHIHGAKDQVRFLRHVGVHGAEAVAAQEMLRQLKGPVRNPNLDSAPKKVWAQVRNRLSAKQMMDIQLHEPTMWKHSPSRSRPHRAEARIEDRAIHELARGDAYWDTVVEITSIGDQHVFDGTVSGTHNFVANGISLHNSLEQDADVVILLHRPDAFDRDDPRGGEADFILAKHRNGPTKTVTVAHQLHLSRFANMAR

[10] = molecular target: Serine/threonine-protein phosphatase PP1-alpha catalytic subunit (Homo sapiens, UniProt P62136); experiment: PP1 phosphatase inhibitors, dose response, biochemical, fluorescence (AID 2394)
[11] = molecular target: T5, Serine/threonine-protein phosphatase (Homo sapiens, UniProt Q9BPW0); experiment: PP5 phosphatase inhibitors, dose response, biochemical, fluorescence (AID 2395)
T5 sequence (Q9BPW0 whole entry): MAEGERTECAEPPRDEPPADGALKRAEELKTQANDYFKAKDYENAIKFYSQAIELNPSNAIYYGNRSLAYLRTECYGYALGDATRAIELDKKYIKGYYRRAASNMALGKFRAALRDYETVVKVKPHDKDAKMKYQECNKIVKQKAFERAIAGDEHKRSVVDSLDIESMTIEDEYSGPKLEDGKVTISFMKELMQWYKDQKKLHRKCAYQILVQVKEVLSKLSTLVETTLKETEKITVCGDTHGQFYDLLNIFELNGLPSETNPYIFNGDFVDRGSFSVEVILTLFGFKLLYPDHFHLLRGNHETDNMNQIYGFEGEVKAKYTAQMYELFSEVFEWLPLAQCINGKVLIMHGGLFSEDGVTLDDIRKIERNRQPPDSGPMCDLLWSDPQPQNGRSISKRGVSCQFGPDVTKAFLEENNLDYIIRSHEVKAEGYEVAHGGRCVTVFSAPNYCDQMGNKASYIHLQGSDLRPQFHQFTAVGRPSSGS

SUMO-activating enzyme [12] = molecular target: T2, SUMO-activating enzyme; experiment: inhibitors of in vitro SUMOylation cascade, primary screen, biochemical, HTRF, uHTS (AID 2006); type: protein-complex assay
[13] = molecular target: 26S proteasome non-ATPase regulatory subunit 14 (Homo sapiens, UniProt O00487); experiment: inhibition of proteasome subunit RPN11 – biochemical, fluorescence polarization, uHTS hits, confirmation (AID 602368); type: functional
[14] = molecular target: 72 kDa type IV collagenase (Homo sapiens, UniProt P08253); experiment: Dose Response validation of uHTS RPN11 inhibitor hits using a MMP-2 Fluorescence assay.; type: functional
[15] = molecular target: Peroxisome proliferator-activated receptor gamma/Nuclear receptor corepressor 2 (Homo sapiens, UniProt P37231+Q9Y618); experiment: Counterscreen for NR2E3 inverse agonists: TR-FRET-based biochemical high throughput dose response assay to identify inverse agonists of the interaction between peroxisome proliferator-activated receptor gamma (PPARg) and nuclear receptor co-repressor 2 (NCOR2).; type: functional
Peroxisome proliferator-activated receptor gamma/Nuclear receptor corepressor 2, sequence (P37231 whole entry): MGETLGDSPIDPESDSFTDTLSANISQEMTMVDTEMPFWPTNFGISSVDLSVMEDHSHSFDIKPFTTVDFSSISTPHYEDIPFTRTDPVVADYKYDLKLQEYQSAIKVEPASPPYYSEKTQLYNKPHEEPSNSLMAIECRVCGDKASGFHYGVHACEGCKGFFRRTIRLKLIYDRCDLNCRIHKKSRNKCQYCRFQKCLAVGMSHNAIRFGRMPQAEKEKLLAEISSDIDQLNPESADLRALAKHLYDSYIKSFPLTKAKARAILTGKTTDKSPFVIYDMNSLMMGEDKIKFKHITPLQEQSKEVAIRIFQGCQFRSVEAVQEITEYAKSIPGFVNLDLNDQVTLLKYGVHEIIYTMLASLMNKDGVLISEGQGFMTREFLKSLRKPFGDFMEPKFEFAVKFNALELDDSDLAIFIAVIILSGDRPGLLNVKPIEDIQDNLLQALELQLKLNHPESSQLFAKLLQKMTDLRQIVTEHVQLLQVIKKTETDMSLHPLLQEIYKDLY
Peroxisome proliferator-activated receptor gamma/Nuclear receptor corepressor 2, sequence (Q9Y618 whole entry): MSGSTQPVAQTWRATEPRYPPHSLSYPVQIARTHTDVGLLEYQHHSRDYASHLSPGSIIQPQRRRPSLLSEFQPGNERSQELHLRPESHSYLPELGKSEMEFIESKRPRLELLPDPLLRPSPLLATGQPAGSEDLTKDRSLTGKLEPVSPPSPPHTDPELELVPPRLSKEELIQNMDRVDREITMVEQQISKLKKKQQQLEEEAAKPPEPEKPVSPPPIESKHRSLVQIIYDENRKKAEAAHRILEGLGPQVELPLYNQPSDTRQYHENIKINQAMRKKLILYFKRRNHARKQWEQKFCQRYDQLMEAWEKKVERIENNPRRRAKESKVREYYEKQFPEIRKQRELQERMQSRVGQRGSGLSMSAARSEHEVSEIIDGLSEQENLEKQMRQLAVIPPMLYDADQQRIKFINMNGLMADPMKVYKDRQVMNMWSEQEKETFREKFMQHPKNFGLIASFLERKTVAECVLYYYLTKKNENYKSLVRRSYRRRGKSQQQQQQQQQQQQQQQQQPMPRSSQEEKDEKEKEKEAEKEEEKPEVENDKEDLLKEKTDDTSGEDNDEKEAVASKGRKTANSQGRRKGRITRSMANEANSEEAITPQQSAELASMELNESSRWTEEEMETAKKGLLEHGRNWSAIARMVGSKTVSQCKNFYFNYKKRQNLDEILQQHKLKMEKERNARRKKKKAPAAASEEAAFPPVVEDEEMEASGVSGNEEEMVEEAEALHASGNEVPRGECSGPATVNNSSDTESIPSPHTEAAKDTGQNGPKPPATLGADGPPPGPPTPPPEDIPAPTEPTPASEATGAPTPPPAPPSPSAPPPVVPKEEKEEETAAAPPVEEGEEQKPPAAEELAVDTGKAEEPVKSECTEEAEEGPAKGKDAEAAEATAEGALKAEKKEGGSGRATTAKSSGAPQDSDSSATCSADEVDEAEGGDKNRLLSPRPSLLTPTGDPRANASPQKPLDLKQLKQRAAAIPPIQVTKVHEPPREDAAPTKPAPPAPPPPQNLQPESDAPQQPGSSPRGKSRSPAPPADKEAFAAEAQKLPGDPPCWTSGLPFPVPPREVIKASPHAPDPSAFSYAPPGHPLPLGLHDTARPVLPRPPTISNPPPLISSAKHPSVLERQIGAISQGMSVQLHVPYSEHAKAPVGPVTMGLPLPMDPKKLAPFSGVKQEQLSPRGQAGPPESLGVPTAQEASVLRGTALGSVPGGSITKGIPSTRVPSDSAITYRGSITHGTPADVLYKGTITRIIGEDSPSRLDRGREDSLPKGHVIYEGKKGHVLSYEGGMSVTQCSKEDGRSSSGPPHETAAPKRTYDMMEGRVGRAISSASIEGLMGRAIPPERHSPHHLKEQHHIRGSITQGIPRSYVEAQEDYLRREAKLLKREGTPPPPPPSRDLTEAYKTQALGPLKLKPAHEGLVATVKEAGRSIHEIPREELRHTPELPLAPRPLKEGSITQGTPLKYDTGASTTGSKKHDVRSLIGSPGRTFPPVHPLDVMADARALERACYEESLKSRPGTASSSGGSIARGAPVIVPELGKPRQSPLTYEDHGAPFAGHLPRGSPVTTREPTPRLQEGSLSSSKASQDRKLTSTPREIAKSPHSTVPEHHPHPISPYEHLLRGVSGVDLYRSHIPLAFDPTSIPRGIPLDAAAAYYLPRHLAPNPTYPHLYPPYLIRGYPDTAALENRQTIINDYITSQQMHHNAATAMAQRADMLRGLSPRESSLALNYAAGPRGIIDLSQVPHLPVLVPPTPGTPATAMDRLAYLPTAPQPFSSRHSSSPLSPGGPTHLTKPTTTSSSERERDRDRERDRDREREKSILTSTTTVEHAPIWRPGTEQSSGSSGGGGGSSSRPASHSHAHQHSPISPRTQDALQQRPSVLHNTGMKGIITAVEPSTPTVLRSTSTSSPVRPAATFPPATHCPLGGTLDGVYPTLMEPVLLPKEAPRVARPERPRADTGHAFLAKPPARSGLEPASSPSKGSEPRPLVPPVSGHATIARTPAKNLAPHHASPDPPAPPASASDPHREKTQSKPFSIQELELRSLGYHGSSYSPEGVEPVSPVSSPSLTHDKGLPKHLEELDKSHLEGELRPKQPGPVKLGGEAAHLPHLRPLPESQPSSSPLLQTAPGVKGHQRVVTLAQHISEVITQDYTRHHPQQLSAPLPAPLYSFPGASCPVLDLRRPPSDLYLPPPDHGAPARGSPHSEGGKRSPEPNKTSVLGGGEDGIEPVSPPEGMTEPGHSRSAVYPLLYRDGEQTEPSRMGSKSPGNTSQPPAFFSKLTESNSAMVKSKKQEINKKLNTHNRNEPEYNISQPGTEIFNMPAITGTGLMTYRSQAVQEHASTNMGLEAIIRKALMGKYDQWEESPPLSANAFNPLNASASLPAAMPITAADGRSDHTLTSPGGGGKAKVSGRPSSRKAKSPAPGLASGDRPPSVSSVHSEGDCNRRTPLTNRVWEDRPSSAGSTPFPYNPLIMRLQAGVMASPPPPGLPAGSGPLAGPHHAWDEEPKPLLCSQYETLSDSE

[16] = molecular target: Photoreceptor-specific nuclear receptor (Homo sapiens, UniProt Q9Y5X4); experiment: NR2E3 inverse agonists, dose response, biochemical, TR-FRET (AID 463256); type: functional
Photoreceptor-specific nuclear receptor, sequence (Q9Y5X4 whole entry): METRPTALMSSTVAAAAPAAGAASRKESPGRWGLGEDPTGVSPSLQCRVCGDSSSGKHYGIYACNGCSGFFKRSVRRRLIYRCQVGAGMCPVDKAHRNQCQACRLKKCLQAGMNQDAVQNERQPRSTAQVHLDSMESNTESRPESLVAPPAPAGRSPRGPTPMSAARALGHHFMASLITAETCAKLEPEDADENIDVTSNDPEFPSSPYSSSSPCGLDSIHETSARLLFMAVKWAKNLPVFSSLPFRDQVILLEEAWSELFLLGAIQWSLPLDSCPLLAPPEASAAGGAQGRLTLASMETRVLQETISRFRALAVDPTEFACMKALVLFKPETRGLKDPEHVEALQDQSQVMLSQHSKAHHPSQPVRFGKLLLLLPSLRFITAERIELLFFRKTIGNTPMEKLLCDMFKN

Prothrombin = Prothrombin (Bos taurus, UniProt P00735); experiment: thrombin inhibition, dose response, biochemical, fluorescence polarization, uHTS hits (AID 602369); type: functional
Cytochrome P450 2C19 = Cytochrome P450 2C19 (Homo sapiens, UniProt P33261); experiment: qHTS Assay for Inhibitors and Substrates of Cytochrome P450 2C19. [Related pubchem assays: 410 ]; type: ADME; settings: read-out: Potency
Cytochrome P450 2C19, sequence (P33261 whole entry): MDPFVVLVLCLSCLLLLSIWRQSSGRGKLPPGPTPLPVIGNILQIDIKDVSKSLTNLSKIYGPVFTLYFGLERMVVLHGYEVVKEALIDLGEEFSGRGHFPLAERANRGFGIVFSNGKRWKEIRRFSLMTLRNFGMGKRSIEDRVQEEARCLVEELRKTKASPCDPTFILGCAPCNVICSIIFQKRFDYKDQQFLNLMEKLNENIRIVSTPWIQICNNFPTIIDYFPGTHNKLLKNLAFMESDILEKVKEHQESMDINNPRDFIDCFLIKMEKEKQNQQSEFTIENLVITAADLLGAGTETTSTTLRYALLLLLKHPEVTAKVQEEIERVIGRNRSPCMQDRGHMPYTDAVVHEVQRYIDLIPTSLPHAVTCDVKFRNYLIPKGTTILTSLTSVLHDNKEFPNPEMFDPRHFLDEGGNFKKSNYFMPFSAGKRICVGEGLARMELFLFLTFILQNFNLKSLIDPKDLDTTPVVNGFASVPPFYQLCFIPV

Vero = experiment: West Nile virus antiviral activity, cell-based, CPE readout (AID 1621); type: functional; settings: Chlorocebus sabaeus

Nc1c(N2CCOCC2)cc(Cl)c2nonc12
IC50 [1]: > 50 µM (not active)

CC(=O)c1cnc(Nc2cccc(Cl)c2Cl)s1
EC50 [2]: > 160 µM (inactive) | IC50 [3]: > 109 µM (inactive) | IC50 [4]: > 83.3 µM (inactive) | EC50 [5]: > 38 µM (not active)

O=C1c2ccccc2C(=O)C12OC2c1ccc(Cl)cc1 (stereo unspecified)
EC50 [6]: > 120 µM (not active) | IC50 (SUMO-activating enzyme [7]): 7.05 µM (active) | EC50 [8]: > 120 µM (not active) | EC50 (Protein RecA): 22.2 µM (inconclusive) | EC50 (H4): > 120 µM (not active) | AC50 [9]: 1.61 µM (active) | IC50 [10]: > 67 µM (not active) | IC50 [11]: > 2.48 µM (active) | IC50 (SUMO-activating enzyme [12]): 21.2 µM (active)

Cc1c(NC(=O)c2cccc(-c3cc4ccccc4oc3=O)c2)cccc1-c1nc2ncccc2o1
IC50 [13]: 24.1 µM (active) | IC50 [14]: > 100 µM (inactive) | IC50 [15]: 1.72 µM (active) | IC50 [16]: 2.33 µM (active) | IC50 (Prothrombin): 92 µM (active)

Cc1ccc(NCC(O)C(O)C(O)CO)cc1C (stereo unspecified)
IC50 [3]: > 109 µM (inactive) | IC50 [4]: > 83.3 µM (inactive)

CC(=O)c1ccc(C2C=CC(Oc3ccc(F)cc3C)C(CO)O2)cc1 (stereo unspecified)
AC50 (Cytochrome P450 2C19): 6.31 µM (inconclusive)

O=C(Cc1ccc(Cl)cc1)Nc1ccc2oc(-c3ccncc3)nc2c1
IC50 [15]: 5.54 µM (active) | IC50 [16]: 4.29 µM (active)

CCOC(=O)c1[nH]c2ccccc2c1NC(=O)CC(C)(C)C
IC50 (Vero): 22.2 µM (active)

C=C[C@@]1(C)C=C2CC[C@@H]3[C@](C)(CCC[C@@]3(C)C(=O)O)[C@H]2CC1 [PIMARIC ACID]
AC50 (Cytochrome P450 2C19): 7.94 µM (inconclusive)
